Results as given in ChEMBL document CHEMBL5532705, “Bioactivity-Based Molecular Networking-Guided Isolation of Epicolidines A-C from the Endophytic Fungus Epicoccum sp. 1-042” (2024).
Numbered stars: 1 amine (or outer) side, 2 acyl side, 3 side chain; on linkers, the order of the positions; unused ones are H or OH. Bridge positions count the residues as written; N and C are the ends. Square brackets hold non-standard residues; d marks the D form. Peptide text beside a SMILES is read from it. * marks the point of attachment. X1 = O=C1C[C@@H](C(=O)[*:2])N([*:1])C[C@H]1CS[C@@H]1CN2CCC1CC2; NMePhe(4-NMe2) = CN[C@@H](Cc1ccc(N(C)C)cc1)C(=O)O; Picolinoyl(3-OH) = O=C(c1ncccc1O)*; Phg = N[C@H](C(=O)O)c1ccccc1; dAbu = CC[C@@H](N)C(=O)O

Columns and labels:
Format in all cases: functional
Enterococcus faecium [1] = test: Antimicrobial activity against vancomycin resistant Enterococcus faecium 310682 assessed as inhibition of microbial growth incubated for 16 hrs in presence of quinupristin by broth microdilution method
Staphylococcus aureus [2] = test: Antimicrobial activity against methicillin resistant Staphylococcus aureus 181404 assessed as inhibition of microbial growth incubated for 16 hrs by broth microdilution method
Enterococcus faecium [3] = test: Antimicrobial activity against vancomycin resistant Enterococcus faecium 310682 assessed as inhibition of microbial growth incubated for 16 hrs by broth microdilution method
Candida albicans = test: Antimicrobial activity against Candida albicans ATCC 10231 assessed as inhibition of microbial growth incubated for 16 hrs by broth microdilution method
Candida tropicalis = test: Antimicrobial activity against Candida tropicalis ATCC 1369 assessed as inhibition of microbial growth incubated for 16 hrs by broth microdilution method
Escherichia coli = test: Antimicrobial activity against Escherichia coli ATCC 25922 assessed as inhibition of microbial growth incubated for 16 hrs by broth microdilution method
Pseudomonas aeruginosa = test: Antimicrobial activity against Pseudomonas aeruginosa ATCC 27853 assessed as inhibition of microbial growth incubated for 16 hrs by broth microdilution method
Staphylococcus aureus [4] = test: Antimicrobial activity against Staphylococcus aureus ATCC 29213 assessed as inhibition of microbial growth incubated for 16 hrs by broth microdilution method
Enterococcus faecium [5] = test: Antimicrobial activity against Enterococcus faecium ATCC 35667 assessed as inhibition of microbial growth incubated for 16 hrs by broth microdilution method
Klebsiella pneumoniae = test: Antimicrobial activity against Klebsiella pneumoniae ATCC 700603 assessed as inhibition of microbial growth incubated for 16 hrs by broth microdilution method
Enterococcus faecium [6] = test: Antimicrobial activity against vancomycin resistant Enterococcus faecium 310682 assessed as inhibition of microbial growth incubated for 16 hrs in presence of dalfopristin by broth microdilution method
Enterococcus faecium [7] = test: Antibacterial activity against vancomycin resistant Enterococcus faecium 310682 infected in Galleria mellonella last-instar larvae assessed as survival at 10 mg/kg measured after 1 day (reference value: 30%); details: Enterococcus faecium, 310682, 24 h
Enterococcus faecium [8] = test: Antibacterial activity against vancomycin resistant Enterococcus faecium 310682 infected in Galleria mellonella last-instar larvae assessed as survival at 0.20 mg/kg measured after 1 day (reference value: 30%); details: Enterococcus faecium, 310682, 24 h
Enterococcus faecium [9] = test: Antibacterial activity against vancomycin resistant Enterococcus faecium 310682 infected in Galleria mellonella last-instar larvae assessed as survival at 1 mg/kg measured after 1 day (reference value: 30%); details: Enterococcus faecium, 310682, 24 h

| Compound | MIC (Enterococcus faecium [1]) | MIC (Staphylococcus aureus [2]) | MIC (Enterococcus faecium [3]) | MIC (Candida albicans) | MIC (Candida tropicalis) | MIC (Escherichia coli) | MIC (Pseudomonas aeruginosa) | MIC (Staphylococcus aureus [4]) | MIC (Enterococcus faecium [5]) | MIC (Klebsiella pneumoniae) | MIC (Enterococcus faecium [6]) | survival at 10 mg/kg (Enterococcus faecium [7]) | survival at 0.2 mg/kg (Enterococcus faecium [8]) | survival at 1 mg/kg (Enterococcus faecium [9]) |
| --- | --- | --- | --- | --- | --- | --- | --- | --- | --- | --- | --- | --- | --- | --- |
| CCN(CC)CCS(=O)(=O)[C@@H]1CCN2C(=O)c3coc(n3)CC(=O)C[C@H](O)/C=C(C)/C=C/CNC(=O)/C=C/[C@@H](C)[C@@H](C(C)C)OC(=O)[C@@H]12 [DALFOPRISTIN] | 0.5 µg/mL |  |  |  |  |  |  |  |  |  |  |  |  |  |
| CN[C@H](CC(C)C)C(=O)N[C@H]1C(=O)N[C@@H](CC(N)=O)C(=O)N[C@H]2C(=O)N[C@H]3C(=O)N[C@H](C(=O)N[C@H](C(=O)O)c4cc(O)cc(O)c4-c4cc3ccc4O)[C@H](O)c3ccc(c(Cl)c3)Oc3cc2cc(c3O[C@@H]2O[C@H](CO)[C@@H](O)[C@H](O)[C@H]2O[C@H]2C[C@](C)(N)[C@H](O)[C@H](C)O2)Oc2ccc(cc2Cl)[C@H]1O [VANCOMYCIN] |  | 0.25 µg/mL | > 16 µg/mL |  |  |  |  |  |  |  |  |  |  |  |
| OC(Cn1cncn1)(Cn1cncn1)c1ccc(F)cc1F [FLUCONAZOLE] |  |  |  | 8 µg/mL | 2 µg/mL |  |  |  |  |  |  |  |  |  |
| C=C([C@H](C)O)[C@H]1C=C[C@H]2C[C@@H](C)C[C@@H](C)[C@H]2[C@@H]1/C(O)=C1\C(=O)[C@H]([C@@H](C)CC)N(C)C1=O |  | 2 µg/mL | 2 µg/mL | 128 µg/mL | > 128 µg/mL | > 128 µg/mL | > 128 µg/mL | 2 µg/mL | 8 µg/mL | > 128 µg/mL |  |  |  |  |
| C[C@@H](O)[C@H]1C(=O)N2C(C(=O)O)=C(S[C@@H]3CN[C@H](C(=O)N(C)C)C3)[C@H](C)[C@H]12 [MEROPENEM] |  | > 16 µg/mL | > 16 µg/mL |  |  | 0.5 µg/mL | 16 µg/mL | 2 µg/mL | > 16 µg/mL | 2 µg/mL |  |  |  |  |
| CC[C@H](C)[C@@H]1N(C)C(=O)[C@H]2C(=O)[C@H]3[C@@H]4[C@H](C)C[C@H](C)C[C@@H]4C=C[C@@H]3[C@@]3(C)O[C@]21O[C@H]3C |  | 16 µg/mL | 16 µg/mL | > 128 µg/mL | > 128 µg/mL | > 128 µg/mL | > 128 µg/mL | 64 µg/mL | 64 µg/mL | > 128 µg/mL |  |  |  |  |
| CC[C@H]1NC(=O)[C@@H](NC(=O)c2ncccc2O)[C@@H](C)OC(=O)[C@H](c2ccccc2)NC(=O)[C@@H]2CC(=O)[C@H](CS[C@@H]3CN4CCC3CC4)CN2C(=O)[C@H](Cc2ccc(N(C)C)cc2)N(C)C(=O)[C@@H]2CCCN2C1=O [QUINUPRISTIN] ({Picolinoyl(3-OH)}-T[dAbu]P[NMePhe(4-NMe2)][X1][Phg]; ester 1-C) |  |  |  |  |  |  |  |  |  |  | 0.5 µg/mL |  |  |  |
| CC[C@H](C)[C@H]1C(=O)/C(=C(/O)[C@H]2[C@@H]3[C@H](C)C[C@H](C)C[C@@H]3C=C[C@@H]2[C@]2(C)O[C@H]2C)C(=O)N1C |  | 0.5 µg/mL | 0.25 µg/mL | 8 µg/mL | > 128 µg/mL | > 128 µg/mL | > 128 µg/mL | 0.25 µg/mL | 1 µg/mL | > 128 µg/mL |  | 100% | 0% | 40% |
